From patent US6753345B2, “7-hexanolytaxol and methods for preparing the same” (Hauser, Inc., priority 1998, dated 2004)

How the values were obtained:
[1] = system: CCRF-CEM cells; experiment: G2/M arrest; type: cell-based; conditions: minimum concentration that results in 60% of CCRF-CEM cells to arrest in G2-M
[2] = system: NCI-H322M; conditions: NCI-H322M (Non-Small Cell Lung Cancer); PG=0; 48 hour incubation
[3] = system: NCI-H322M; experiment: cells; conditions: Homo sapiens, 48 h, read-out: Log10 GI50 (converted)
[4] = system: LOX-IMVI; experiment: cells; conditions: Homo sapiens, 48 h, read-out: Log10 LC50 (converted)
[5] = system: IGR-OV1; experiment: SRB cytotoxicity screening assay (Ovarian)
[6] = system: OVCAR-4; experiment: SRB cytotoxicity screening assay (Ovarian)
[7] = system: OVCAR-5; experiment: SRB cytotoxicity screening assay (Ovarian)
[8] = system: OVCAR-6; experiment: SRB cytotoxicity screening assay (Ovarian)
[9] = system: RPMI-8226; experiment: SRB cytotoxicity screening assay (Leukemia); conditions: Homo sapiens, RPMI-8226, 48 h
[10] = system: SR; experiment: SRB cytotoxicity screening assay (Leukemia); conditions: Homo sapiens, SR, 48 h
[11] = system: M14; experiment: SRB cytotoxicity screening assay (Melanoma)
[12] = system: UACC-257; experiment: SRB cytotoxicity screening assay (Melanoma)
[13] = system: UACC-62; experiment: SRB cytotoxicity screening assay (Melanoma)
[14] = system: SF-268; experiment: SRB cytotoxicity screening assay (CNS Cancer)
[15] = system: A498; experiment: SRB cytotoxicity screening assay (Renal Cancer)
[16] = system: RXF-393; experiment: SRB cytotoxicity screening assay (Renal Cancer); conditions: Homo sapiens, RXF 393, 48 h
[17] = system: SN12C; experiment: SRB cytotoxicity screening assay (Renal Cancer)
[18] = system: TK-10; experiment: SRB cytotoxicity screening assay (Renal Cancer)
[19] = system: MCF7; experiment: SRB cytotoxicity screening assay (Breast Cancer)
[20] = system: PC-3; experiment: SRB cytotoxicity screening assay (Prostate Cancer)
[21] = system: DU-145; experiment: SRB cytotoxicity screening assay (Prostate Cancer)
[22] = system: HOP-62; experiment: SRB cytotoxicity screening assay (Non-Small Cell Lung Cancer)
[23] = system: NCI-H460; experiment: as above
[24] = system: NCI-H522; experiment: as above
[25] = system: cell line panel (60 lines, nine disease-related subpanels); experiment: SRB cytotoxicity screening assay, whole cell line panel (mean values)
[26] = read-out: Log10 GI50 (converted)
[27] = read-out: Log10 LC50 (converted)
[28] = mean value over the cell line panel

Which “G2/M arrest MED” value [1] does the source give for `CCCCCC(=O)O[C@H]1C[C@H]2OC[C@@]2(OC(C)=O)[C@H]2[C@H](OC(=O)c3ccccc3)[C@]3(O)C[C@H](OC(=O)[C@H](O)[C@@H](NC(=O)c4ccccc4)c4ccccc4)C(C)=C([C@@H](OC(C)=O)C(=O)[C@]12C)C3(C)C` [7-hexanoyltaxol] here?
Its value is 0.10 µg/mL.

What about the “Log10 TGI” value [2] of the same compound?
Its value is −4.51 molar.

What about the GI50 [3] of the same compound?
Its GI50 is 0.02 µM.

What about the CC50 [4] of the same compound?
The CC50 was 57.5 µM.

And the GI50 ([5]; Homo sapiens, IGROV-1, 48 h, read-out: Log10 GI50 (converted))?
Its GI50 is < 0.01 µM.

And the CC50 ([5]; Homo sapiens, IGROV-1, 48 h, read-out: Log10 LC50 (converted))?
The CC50 was > 100 µM.

What about the “Log10 TGI” value ([5]; IGR-OV1 (Ovarian), PG=0, 48 hour incubation) of the same compound?
Its value is −4.52 molar.

And the GI50 ([6]; Homo sapiens, OVCAR-4, 48 h, read-out: Log10 GI50 (converted))?
Its GI50 is 1.58 µM.

What about the CC50 ([6]; Homo sapiens, OVCAR-4, 48 h, read-out: Log10 LC50 (converted)) of the same compound?
The CC50 was > 100 µM.

What about the “Log10 TGI” value ([6]; OVCAR-4 (Ovarian), PG=0, 48 hour incubation) of the same compound?
Its value is −4.21 molar.

And the GI50 ([7]; Homo sapiens, OVCAR-5, 48 h, read-out: Log10 GI50 (converted))?
Its GI50 is < 0.01 µM.

And the CC50 ([7]; Homo sapiens, OVCAR-5, 48 h, read-out: Log10 LC50 (converted))?
Its CC50 is 33.9 µM.

And the “Log10 TGI” value ([7]; OVCAR-5 (Ovarian), PG=0, 48 hour incubation)?
Its value is −5.47 molar.

And the GI50 ([8]; 48 h, read-out: Log10 GI50 (converted))?
The GI50 was < 0.01 µM.

What about the CC50 ([8]; 48 h, read-out: Log10 LC50 (converted)) of the same compound?
Its CC50 is 85.1 µM.

What about the “Log10 TGI” value ([8]; OVCAR-6 (Ovarian), PG=0, 48 hour incubation) of the same compound?
The value was −4.88 molar.

And the GI50 [9, 26]?
The GI50 was < 0.01 µM.

And the CC50 [9, 27]?
The CC50 was > 100 µM.

What about the GI50 [10, 26] of the same compound?
Its GI50 is < 0.01 µM.

What about the CC50 [10, 27] of the same compound?
The CC50 was > 100 µM.

And the GI50 ([11]; Homo sapiens, M14, 48 h, read-out: Log10 GI50 (converted))?
The GI50 was < 0.01 µM.

What about the CC50 ([11]; Homo sapiens, M14, 48 h, read-out: Log10 LC50 (converted)) of the same compound?
The CC50 was 1.58 µM.

And the “Log10 TGI” value ([11]; M14 (Melanoma), PG=0, 48 hour incubation)?
The value was −7.94 molar.

What about the CC50 ([12]; Homo sapiens, UACC-257, 48 h, read-out: Log10 LC50 (converted)) of the same compound?
Its CC50 is > 100 µM.

And the “Log10 TGI” value ([12]; UACC-257 (Melanoma), PG=0, 48 hour incubation)?
The value was −4.00 molar.

And the GI50 ([13]; Homo sapiens, UACC-62, 48 h, read-out: Log10 GI50 (converted))?
The GI50 was < 0.01 µM.

And the CC50 ([13]; Homo sapiens, UACC-62, 48 h, read-out: Log10 LC50 (converted))?
The CC50 was > 100 µM.

What about the “Log10 TGI” value ([13]; UACC-62 (Melanoma), PG=0, 48 hour incubation) of the same compound?
The value was −4.78 molar.

What about the GI50 ([14]; Homo sapiens, SF-268, 48 h, read-out: Log10 GI50 (converted)) of the same compound?
The GI50 was < 0.01 µM.

And the CC50 ([14]; Homo sapiens, SF-268, 48 h, read-out: Log10 LC50 (converted))?
The CC50 was > 100 µM.

What about the “Log10 TGI” value ([14]; SF-268 (CNS Cancer), PG=0, 48 hour incubation) of the same compound?
The value was −4.95 molar.

What about the “Log10 TGI” value ([15]; A498 (Renal Cancer), PG=0, 48 hour incubation) of the same compound?
The value was −7.29 molar.

What about the GI50 ([15]; Homo sapiens, A498, 48 h, read-out: Log10 GI50 (converted)) of the same compound?
Its GI50 is < 0.01 µM.

What about the CC50 ([15]; Homo sapiens, A498, 48 h, read-out: Log10 LC50 (converted)) of the same compound?
Its CC50 is > 100 µM.

What about the GI50 [16, 26] of the same compound?
Its GI50 is < 0.01 µM.

And the CC50 [16, 27]?
The CC50 was 91.2 µM.

And the GI50 ([17]; Homo sapiens, SN12C, 48 h, read-out: Log10 GI50 (converted))?
Its GI50 is < 0.01 µM.

And the CC50 ([17]; Homo sapiens, SN12C, 48 h, read-out: Log10 LC50 (converted))?
Its CC50 is > 100 µM.

And the “Log10 TGI” value ([17]; SN12C (Renal Cancer), PG=0, 48 hour incubation)?
Its value is >−4.00 molar.

And the GI50 ([18]; Homo sapiens, TK-10, 48 h, read-out: Log10 GI50 (converted))?
Its GI50 is 0.0324 µM.

And the CC50 ([18]; Homo sapiens, TK-10, 48 h, read-out: Log10 LC50 (converted))?
The CC50 was > 100 µM.

And the “Log10 TGI” value ([18]; TK-10 (Renal Cancer), PG=0, 48 hour incubation)?
The value was −4.45 molar.

And the GI50 ([19]; Homo sapiens, MCF7, 48 h, read-out: Log10 GI50 (converted))?
The GI50 was < 0.01 µM.

What about the CC50 ([19]; Homo sapiens, MCF7, 48 h, read-out: Log10 LC50 (converted)) of the same compound?
The CC50 was > 100 µM.

What about the “Log10 TGI” value ([19]; MCF7 (Breast Cancer), PG=0, 48 hour incubation) of the same compound?
The value was −4.73 molar.

And the GI50 ([20]; Homo sapiens, PC-3, 48 h, read-out: Log10 GI50 (converted))?
The GI50 was < 0.01 µM.

And the CC50 ([20]; Homo sapiens, PC-3, 48 h, read-out: Log10 LC50 (converted))?
The CC50 was > 100 µM.

What about the “Log10 TGI” value ([20]; PC-3 (Prostate Cancer), PG=0, 48 hour incubation) of the same compound?
Its value is −5.48 molar.

And the “Log10 TGI” value ([21]; DU-145 (Prostate Cancer), PG=0, 48 hour incubation)?
Its value is −7.00 molar.

And the GI50 ([21]; Homo sapiens, DU-145, 48 h, read-out: Log10 GI50 (converted))?
Its GI50 is < 0.01 µM.

What about the CC50 ([21]; Homo sapiens, DU-145, 48 h, read-out: Log10 LC50 (converted)) of the same compound?
The CC50 was 37.2 µM.

What about the “Log10 TGI” value ([22]; HOP-62 (Non-Small Cell Lung Cancer), PG=0, 48 hour incubation) of the same compound?
The value was −6.52 molar.

What about the GI50 ([22]; Homo sapiens, HOP-62, 48 h, read-out: Log10 GI50 (converted)) of the same compound?
Its GI50 is 0.0141 µM.

And the CC50 ([22]; Homo sapiens, HOP-62, 48 h, read-out: Log10 LC50 (converted))?
The CC50 was 89.1 µM.

What about the GI50 ([23]; Homo sapiens, NCI-H460, 48 h, read-out: Log10 GI50 (converted)) of the same compound?
The GI50 was < 0.01 µM.

What about the CC50 ([23]; Homo sapiens, NCI-H460, 48 h, read-out: Log10 LC50 (converted)) of the same compound?
Its CC50 is > 100 µM.

What about the “Log10 TGI” value ([23]; NCI-H460 (Non-Small Cell Lung Cancer), PG=0, 48 hour incubation) of the same compound?
The value was −4.75 molar.

And the GI50 ([24]; Homo sapiens, NCI-H522, 48 h, read-out: Log10 GI50 (converted))?
The GI50 was < 0.01 µM.

What about the CC50 ([24]; Homo sapiens, NCI-H522, 48 h, read-out: Log10 LC50 (converted)) of the same compound?
Its CC50 is > 100 µM.

What about the “Log10 TGI” value ([24]; NCI-H522 (Non-Small Cell Lung Cancer), PG=0, 48 hour incubation) of the same compound?
The value was −5.91 molar.

What about the “potency compared with paclitaxel” value ([25]; cancer cell line panel, Table I) of the same compound?
The value was “in most instances is as potent and in some instances more potent than paclitaxel”.

What about the “Log10 GI50, MG_MID” value [25, 28] of the same compound?
Its value is −7.79 molar.

What about the “Log10 LC50, MG_MID” value [25, 28] of the same compound?
Its value is −4.32 molar.

And the “Log10 TGI, MG_MID” value [25, 28]?
Its value is −5.59 molar.
